“Also recorded” adds a separate entry of the source. Read-outs that look alike come from different tables or passages of the source.
What was measured:
[1] = test system: Phytophthora infestans (US22); assay type: in vivo; settings: for resistance to P. infestans: root treatment, at the concentrations tested; for resistance to US22 P. infestans: at the concentration tested
[2] = test system: Phytophthora infestans (US22); assay type: in vivo

CC1O[C@@H](O[C@@H](C)CCCCCCCCC(=O)O)C(O)C[C@H]1O (stereo in doubt) [ascr #18, (10R)-(3′R,5′R-dihydroxy-6′S-methyl-(2H)-tetrahydropyran-2-yloxy)-undecanoic Acid]
P. infestans resistance in tomato ([1]; tomato (M82), root pretreatment with 0.01 or 1 μM ascaroside): +
resistance to P. infestans ([1]; tomato cv. M82): enhanced resistance
protection against US22 P. infestans (sporangia number, lesion size) ([1]; tomato cv. M82, roots pretreated 48 hours, 1 nM and 10 nM): strong protection
resistance to virulent US22 P. infestans ([1]; tomato cv. M82 and Rio Grande, root immersion 0.01 μM 48 hours before inoculation): enhances resistance
resistance to virulent US22 P. infestans (lesion size 5 dpi, sporangia 6 dpi) ([1]; tomato cv. Rio Grande, root immersion 0.01 μM 48 hours before): enhanced resistance
enhancement of resistance ([1]; tomato, 100 nM): reduced or lost
ascr #18 concentrations of maximal protection/resistance ([1]; tomato, P. infestans US22): 1 to 10 nM
concentration that enhanced resistance (as little as) ([1]; tomato, P. infestans US22): 10 pM
protection against P. infestans ([1]; tomato, higher concentrations): decreased
protection against virulent P. infestans ([2]; potato cv. Desiré, Eva or Yukon Gold, 10 nM by root immersion or foliar spray 48 hours prior): provided protection; also recorded: protects against P. infestans-induced late blight
resistance to virulent US22 P. infestans (lesion size 5 dpi) ([2]; potato cv. Désirée, root immersion 0.01 μM 48 hours before): enhanced resistance

CC1O[C@@H](O[C@H](C)CCCC/C=C/C(=O)O)C(O)C[C@H]1O (stereo partly shown) [ascr #3]
resistance of M82 against P. infestans ([1]; 0.01 μM): did not have a significant effect
P. infestans resistance in tomato ([1]; in vivo): −
resistance to P. infestans ([1]; tomato cv. M82): neither ascr #3 nor oscr #9 affected resistance

C[C@H](CCC(=O)O)O[C@@H]1O[C@@H](C)[C@H](O)C[C@H]1O [ascr #9]
P. infestans resistance in tomato ([1]; in vivo): +
resistance to US22 P. infestans (lesion size, sporangia number) ([1]; tomato cv. M82, root immersion 1 μM 48 hours before, 7 dpi): enhances resistance
resistance to P. infestans ([1]; tomato cv. M82): enhanced resistance

CC1O[C@@H](O[C@H](C)CCCCCCC(=O)O)C(O)C[C@H]1O (stereo partly shown) [ascr #10]
resistance to US22 P. infestans ([1]; tomato cv. M82): not

CC1O[C@@H](O[C@H](C)CCCCCCCCC(=O)NCCO)C(O)C[C@H]1O (stereo partly shown) [easc #18]
resistance to virulent US22 P. infestans (lesion size 5 dpi, sporangia 6 dpi) ([1]; in vivo): enhanced resistance

CC1O[C@@H](OCCCCC(=O)O)C(O)C[C@H]1O (stereo partly shown) [oscr #9]
P. infestans resistance in tomato ([1]; in vivo): −
resistance to US22 P. infestans ([1]; tomato cv. M82): not
resistance to P. infestans ([1]; tomato cv. M82): neither ascr #3 nor oscr #9 affected resistance

Source: patent US12382888B2, “Compositions and methods for modulating immunity in plants” (Boyce Thompson Institute for Plant Research, Inc., priority 2013, dated 2025)
